Measured values published in patent publication US20130203649A1, “INHIBITORS OF TLR SIGNALING BY TARGETING TIR DOMAIN INTERFACES” (UNIVERSITY OF MARYLAND, BALTIMORE, priority 2012, published 2013).
Residues, ends and D or L forms follow the SMILES beside them. No end group written: not given here.

Key:
[1] = biological target: T1, TLR2 (Mus musculus, UniProt Q9QUN7); experiment: Inhibition of TLR2 signaling in thioglycollate-elicited mouse macrophages (effective concentration, TLR2 agonists P3C/P2C); format: cell-based; settings: mouse macrophages, P3C/P2C
T1 construct: Primary peritoneal macrophages were obtained by peritoneal lavage; endogenous in cells; host or cells: thioglycollate-elicited mouse peritoneal macrophages
Procedure: C57BL/6J mice were obtained from The Jackson Laboratory (Bar Harbor, Me.). Primary peritoneal macrophages were obtained by peritoneal lavage 4 days after intraperitoneal injection (3 ml) of sterile 3% thioglycolate broth. Washed cells were resuspended in RPMI 1640 which contained 2% FBS, 1% penicillin:streptomycin and 2 mM L-glutamine. After plating, cells were incubated overnight at 37° C. and then washed with PBS to remove non-adherent cells. Cells were exposed to peptides 30 min before stimulation with a TLR agonist.
(§1) Protein-free Escherichia coli K235 LPS was used at final concentration of 10 ng/ml to stimulate cells. S-[2,3-bis(palmitoyloxy)-(2-RS)-propyl]-N-palmitoyl-(R)-Cys-Ser-Lys4-OH (P3C) and S-[2,3-bis(palmitoyloxy)-(2-RS)-propyl]-[R]-Cys-Ser-Lys4-OH (P2C) were purchased from EMC microcollections GmbH (Tubingen, Germany) and used for cell stimulation at 500 and 50 ng/ml, respectively. Phospho-ERK1/2 and phospho-JNK1/2 rabbit Abs were obtained from Cell Signaling Technology, Inc. β-actin rabbit Ab were from SantaCruz Biotechnology, Inc.
(§2) Because of the role TRAP plays in TLR2 signaling, TIRAP TIR-derived decoy peptide effects on TLR2-induced cytokine mRNA expression were examined. Thioglycollate-elicited mouse macrophages were stimulated either by P2C, an agonist that induces signaling through TLR2/TLR6 heterodimerization, or P3C, a TLR2/TLR1 agonist, and effects of TIRAP TR-derived decoy peptides on induction of cytokine mRNA were examined. […] To confirm the inhibitory effect of TR3 and TR6 on P3C-induced signaling, IL-6 and TNF-α concentration was measured in macrophage supernatants collected 5 h after stimulation of cells with P3C. […] Concordantly, both TR3 and TR6 diminished the P3C-induced ERK phosphorylation (FIG. 3D).
(§3) C57BL/6J mice were obtained from The Jackson Laboratory (BarHarbor, Me.). Harvesting, culturing, and stimulation of peritoneal macrophages were described in previous publications (1, 18, 19). Escherichia coli K235 LPS (34) was used at the final concentration of 100 ng/ml. The 2,3-bis(palmitoyloxy)-(2-RS)-propyl-N-palmitoyl-(R)-Cys-Ser-Lys4-OH (P3C) and S[2,3-bis(palmitoyloxy)-(2-RS)-propyl]-[R]-Cys-Ser-Lys4-OH (P2C) (EMC Microcollections, Tubingen, Germany) were used at 500 and 50 ng/ml, respectively. Oligonucleotide (ODN) 1668 and low m.w. polyinosinic-polycytidylic acid [poly(I:C)] in complex with LyoVec were obtained from InvivoGen; these agonists were used at 2.5 μM and 400 ng/ml, respectively.

[2] = test system: MAPK (ERK, JNK, p38); experiment: MAPK activation by peptide alone, macrophages without TLR agonist; format: cell-based, mouse; settings: 20 μM peptide, 1 hour incubation
Procedure: Neither TIRAP peptide activated ERK in cells incubated without a TLR agonist (not shown). […] The mechanism of this differential MAPK activation by select peptides, although interesting, is not understood at this time. Peptides TR9 and TR11 inhibited both ERK and JNK MAPKs (FIG. 1D). Peptide-induced inhibition of ERK persisted over a long period of time.
We next examined whether TRAM peptides inhibit the TLR4-mediated p38, ERK, and JNK MAPK activation. Murine macrophages pretreated with peptides for 30 min were challenged with LPS. Cell lysates were collected 30 min post-stimulation and analyzed for MAPK phosphorylation by Western analysis. Consistent with peptide effects on steady-state mRNA, both TM4 and TM6 inhibited activation of all three MAPKs (FIG. 5C). The inhibition of MAPKs by TM4 or TM6 was long lasting; it persisted for at least 1 h after LPS stimulation (data not shown). To characterize further the effects of TRAM peptides on MAPKs, murine macrophages were treated with TRAM peptides, but not challenged by LPS.

[3] = biological target: T2, TLR2/TLR1 heterodimer (Mus musculus, UniProt Q9QUN7); experiment: P3C-induced cytokine mRNA expression in mouse macrophages; format: cell-based; settings: P3C 500 ng/ml, 1 h
T2 construct: endogenous in cells; host or cells: thioglycollate-elicited mouse peritoneal macrophages
Text: Total cellular RNA was isolated using Tripure from Roche (San Francisco, Calif.) following manufacture's protocol. RNA was then reverse transcribed using AMV Reverse Transcriptase from Promega (Madison, Wis.) with poly-T priming as per manufacturer's directions. cDNA was then quantified by real-time PCR using Applied Biosystems Fast SYBR Green PCR Master Mix and an ABI Prism 7500HT cycler. Primers used for detection: hypoxanthine phosphoribosyltransferase (HPRT) (forward: […] (SEQ ID NO:51), reverse: […] (SEQ ID NO:52)), TNFα (forward: […] (SEQ ID NO:53), reverse: […] (SEQ ID NO:54)), IL-1β (forward: […] (SEQ ID NO:55), reverse: […] (SEQ ID NO:56)), IFNβ (forward: […] (SEQ ID NO:57), reverse: CTCGGACCACCATCCAGG (SEQ ID NO:58)) and RANTES (forward: […] (SEQ ID NO:59), reverse: […] (SEQ ID NO:60)). The primers were designed using Primer Express 2.0 (Applied Biosystems). Using HPRT as reference, the ΔCt method was used to calculate relative gene expression. One-way ANOVA was preformed, as well as Dunnett's multiple comparison post hoc test with a p≦0.01 selected as the level of significance.
as §1, §2, §3

T2 sequence (Q9QUN7 25-784, one chain of several): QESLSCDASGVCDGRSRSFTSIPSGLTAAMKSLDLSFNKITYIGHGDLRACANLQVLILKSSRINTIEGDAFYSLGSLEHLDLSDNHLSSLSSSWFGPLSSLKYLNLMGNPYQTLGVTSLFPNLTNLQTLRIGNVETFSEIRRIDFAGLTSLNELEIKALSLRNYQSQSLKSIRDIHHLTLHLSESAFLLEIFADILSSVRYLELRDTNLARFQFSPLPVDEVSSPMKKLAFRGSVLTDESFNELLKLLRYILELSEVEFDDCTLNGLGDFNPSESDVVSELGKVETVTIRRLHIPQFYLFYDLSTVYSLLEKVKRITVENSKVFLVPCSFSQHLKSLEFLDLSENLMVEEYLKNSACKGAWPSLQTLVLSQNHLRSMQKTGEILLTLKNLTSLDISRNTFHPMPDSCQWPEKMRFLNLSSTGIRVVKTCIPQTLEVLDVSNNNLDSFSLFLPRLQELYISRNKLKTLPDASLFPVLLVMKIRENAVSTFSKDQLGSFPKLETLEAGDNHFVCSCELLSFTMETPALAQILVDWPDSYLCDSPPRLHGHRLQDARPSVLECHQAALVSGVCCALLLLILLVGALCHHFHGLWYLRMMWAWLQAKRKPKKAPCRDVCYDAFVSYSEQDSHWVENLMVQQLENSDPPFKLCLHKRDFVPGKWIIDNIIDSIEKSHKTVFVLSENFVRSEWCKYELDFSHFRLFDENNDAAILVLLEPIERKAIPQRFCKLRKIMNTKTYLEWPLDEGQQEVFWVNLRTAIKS
T1 sequence (Q9QUN7 25-784): as the sequence (Q9QUN7 25-784, one chain of several) above

Row | Compound | Inhibition of TLR2 signaling (overall) [1] | JNK activation in macrophages without TLR agonist [2] | P3C-induced TNFα and IL-1β mRNA ([3]; 20 μM peptide) | P3C-induced TNFα and IL-1β mRNA ([3]; 40 μM peptide)
1 | CC[C@H](C)[C@H](NC(=O)[C@H](CCCCN)NC(=O)[C@@H](NC(=O)[C@H](CCC(N)=O)NC(=O)[C@@H](N)CCCNC(=N)N)[C@@H](C)CC)C(=O)N[C@@H](Cc1c[nH]c2ccccc12)C(=O)N[C@@H](Cc1ccccc1)C(=O)N[C@@H](CCC(N)=O)C(=O)N[C@@H](CC(N)=O)C(=O)N[C@@H](CCCNC(=N)N)C(=O)N[C@@H](CCCNC(=N)N)C(=O)N[C@@H](CCSC)C(=O)N[C@@H](CCCCN)C(=O)N[C@@H](Cc1c[nH]c2ccccc12)C(=O)N[C@@H](CCCCN)C(=O)N[C@@H](CCCCN)C(=O)N[C@@H](CCC(=O)O)C(=O)N[C@@H](CC(C)C)C(=O)N[C@@H](CS)C(=O)N[C@@H](CCC(N)=O)C(=O)N[C@@H](C)C(=O)N[C@@H](CC(C)C)C(=O)N[C@@H](CO)C(=O)N[C@@H](CCCNC(=N)N)C(=O)N[C@@H](CO)C(=O)N[C@@H](Cc1c[nH]cn1)C(=O)N[C@@H](CS)C(=O)N[C@@H](CCCNC(=N)N)C(=O)O [TR5] (H-RQIKIWFQNRRMKWKKELCQALSRSHCR-OH) | does not |  |  | 
2 | RQIKIWFQNRRMKWKKEGSQASLRCF [TR3] | inhibits | moderately activated | inhibited | profoundly inhibited
3 | RQIKIWFQNRRMKWKKPGFLRDPWCKYQML [TR6] |  | moderately activated | inhibited | profoundly inhibited
